In patent US20040067562A1, “Process for the production of L-lysine using coryneform bacteria” (priority 2002, published 2004):

Tests used:
[1] = target: T1, aspartate kinase in the wild type (Corynebacterium glutamicum, UniProt P26512); experiment: inhibition of wild type aspartate kinase by lysine (or analogue)/threonine mixtures; assay type: biochemical; details: wild type enzyme; lysine or analogue 100 mM in mixture with threonine (10 mM)
T1 construct: endogenous in cells
Text: (§1) The Corynebacterium glutamicum strain DM1725 was produced by multiple untargeted and targeted mutagenesis including genetic engineering methods, selection and mutant selection from C. glutamicum ATCC13032. The strain is resistant to the lysine analogue S-(2-aminoethyl)-L-cysteine and has two identical complete copies of the LysC gene that code for a feedback-resistant aspartate kinase. The two copies are located at the LysC gene site on the chromosome. […] The strain is streptomycin resistant.

[2] = system: feedback-resistant aspartate kinase; experiment: inhibition of feedback-resistant aspartate kinase by lysine (or analogue)/threonine mixtures; assay type: biochemical, Corynebacterium glutamicum; details: feedback-resistant enzyme of strain DM1725; lysine or analogue 100 mM in mixture with threonine (10 mM)
Text: as §1

T1 sequence (P26512 whole entry): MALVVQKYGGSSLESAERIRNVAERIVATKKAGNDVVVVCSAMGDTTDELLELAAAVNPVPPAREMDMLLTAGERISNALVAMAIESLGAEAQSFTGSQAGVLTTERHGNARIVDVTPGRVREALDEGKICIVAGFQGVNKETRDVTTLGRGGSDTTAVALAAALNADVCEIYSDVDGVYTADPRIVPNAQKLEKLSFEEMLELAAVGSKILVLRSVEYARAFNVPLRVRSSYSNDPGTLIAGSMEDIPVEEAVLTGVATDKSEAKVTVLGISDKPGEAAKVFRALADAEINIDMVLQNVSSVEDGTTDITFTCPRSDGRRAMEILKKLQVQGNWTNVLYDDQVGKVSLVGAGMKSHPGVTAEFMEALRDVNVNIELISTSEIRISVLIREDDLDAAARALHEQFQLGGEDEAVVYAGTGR
T1 sequence (P26512 250-421): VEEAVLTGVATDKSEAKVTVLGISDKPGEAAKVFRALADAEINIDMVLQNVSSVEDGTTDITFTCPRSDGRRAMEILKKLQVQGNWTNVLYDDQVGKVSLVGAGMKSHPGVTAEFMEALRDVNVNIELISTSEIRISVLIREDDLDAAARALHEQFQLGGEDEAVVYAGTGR

SMILES	residual activity of aspartate kinase [1]	inhibition of aspartate kinase [2]
NCCSC[C@H](N)C(=O)O [S-(2-aminoethyl)-L-cysteine]	10%	insensitive to inhibition
NCCCC[C@H](N)C(=O)O [lysine]	10%	insensitive to inhibition
